Measurements from paper PMC7932537, “Quantitative profiling of protease specificity” (PLoS Computational Biology, 2021).

Assays:
MMP-9 = experiment: Substrate phage display with NGS: relative probability (RP) of P3-P1' tetramer clusters; assay type: biochemical, human; conditions: for corresponding MMP9 relative probability (RP): MMP2 tetramers from unique substrates, RP of same tetramer for MMP9
MMP-2 = experiment: as above; assay type: biochemical, human; conditions: for relative probability (RP) of matching tetramer: P3-P1' tetramer matching the MS detected MMP2 cleavage sequence, RP_above_4.5; for MMP2 relative probability (RP): MMP2 tetramers from unique substrates, unrounded values; for avg_RP: MMP2 - no binning
[1] = MMP9, RP of the P3-P1' tetramer contained in the hexamer substrate (substrate phage display, NGS)
[2] = RP of the P3-P1' tetramer cluster contained in the hexamer, 200 nM MMP-2, 2 h, 37°C, two rounds of selection
[3] = RP of the P3-P1' tetramer, MMP9 substrate phage display/NGS, tetramers of physiologic MEROPS substrates common to MMP2 and MMP9
[4] = RP of the P3-P1' tetramer, MMP2 substrate phage display/NGS, tetramers of physiologic MEROPS substrates common to MMP2 and MMP9
[5] = RP according to MMP9, P3-P1' tetramer of unique physiologic MMP9 substrates from MEROPS
[6] = MMP9, RP of matching P3-P1' tetramer, common set of MMP2-9 selectome
[7] = MMP9, RP of the P3-P1' tetramer matching the MS detected cleavage, RP above 4.7, substrate phage display with NGS
[8] = RP of matching tetramer, common MMP2-9 selectome, RP above KL threshold
[9] = MMP2, RP of matching P3-P1' tetramer, common set of MMP2-9 selectome, RP above KL threshold
[10] = RP of matching tetramer, common MMP2-9 selectome
[11] = RP according to MMP2, P3-P1' tetramer of unique physiologic MMP2 substrates from MEROPS
[12] = average relative probability of the P3-P1' tetramer, redundant tetramers have been averaged out
[13] = normalized RP of matching tetramer, unique part of MMP2 selectome

Substance: SIPLPL
- relative probability (RP) (MMP-9; [1]): 49.0268
- relative probability (RP) (MMP-2; [2]): 35.0814

Substance: SKYL
- relative probability (RP) (acc.to MMP9) (MMP-9; [3]): 0.25
- relative probability (RP) (acc.to MMP2) (MMP-2; [4]): 4.49

Substance: SLPQ
- relative probability (RP) (acc.to MMP9) (MMP-9; [3]): 0.1
- relative probability (RP) (acc.to MMP2) (MMP-2; [4]): 0.51

Substance: SPMAFS
- relative probability (RP) (MMP-9; [1]): 45.5118
- relative probability (RP) (MMP-2; [2]): 29.2698

Substance: SPPAAI
- relative probability (RP) (MMP-9; [1]): 46.1642
- relative probability (RP) (MMP-2; [2]): 32.0972

Substance: SRPAEF
- relative probability (RP) (MMP-9; [1]): 11.7405
- relative probability (RP) (MMP-2; [2]): 19.4662

Substance: TAPSSQ
- relative probability (RP) (MMP-9; [1]): 27.1142
- relative probability (RP) (MMP-2; [2]): 25.0042

Substance: TGLT
- Relative probability (RP) rank (MMP-9; [5]): 41284
- relative probability (RP) (MMP-9; [5]): 0.21
- relative probability (RP) (acc.to MMP9) (MMP-9; [3]): 0.21
- relative probability (RP) (acc.to MMP2) (MMP-2; [4]): 0.24

Substance: TLGL
- relative probability (RP) (acc.to MMP9) (MMP-9; [6]): 9.79
- relative probability (RP) (MMP-9; [7]): 9.79
- relative probability (RP) (acc.to MMP9) (MMP-9; [8]): 9.79
- relative probability (RP) (acc.to MMP2) (MMP-2; [9]): 6
- relative probability (RP) of matching tetramer (MMP-2): 6
- relative probability (RP) (acc.to MMP2) (MMP-2; [10]): 6

Substance: TPAAMT
- relative probability (RP) (MMP-9; [1]): 48.1518
- relative probability (RP) (MMP-2; [2]): 33.3115

Substance: TQPKAM
- relative probability (RP) (MMP-9; [1]): 48.8005
- relative probability (RP) (MMP-2; [2]): 31.5595

Substance: TTPSPI
- relative probability (RP) (MMP-9; [1]): 43.889
- relative probability (RP) (MMP-2; [2]): 32.5241

Substance: VAEM
- corresponding MMP9 relative probability (RP) (MMP-9): 2.985
- Relative probability (RP) rank (MMP-9; [5]): 7772
- relative probability (RP) (MMP-9; [5]): 2.99
- relative probability (RP) (acc.to MMP9) (MMP-9; [3]): 2.99
- MMP2 relative probability (RP) (MMP-2): 19.6601
- Relative probability (RP) rank (MMP-2; [11]): 1857
- relative probability (RP) (MMP-2; [11]): 19.66
- relative probability (RP) (acc.to MMP2) (MMP-2; [4]): 19.66

Substance: VEPLKF
- relative probability (RP) (MMP-9; [1]): 27.4837
- relative probability (RP) (MMP-2; [2]): 11.7082

Substance: VGEY
- corresponding MMP9 relative probability (RP) (MMP-9): 0.1188
- MMP2 relative probability (RP) (MMP-2): 13.6759
- Relative probability (RP) rank (MMP-2; [11]): 3547
- relative probability (RP) (MMP-2; [11]): 13.68

Substance: VGGL
- relative probability (RP) (acc.to MMP9) (MMP-9; [6]): 9.44
- relative probability (RP) (MMP-9; [7]): 9.44
- relative probability (RP) (acc.to MMP9) (MMP-9; [8]): 9.44
- relative probability (RP) (acc.to MMP2) (MMP-2; [9]): 26.45
- relative probability (RP) of matching tetramer (MMP-2): 26.45
- relative probability (RP) (acc.to MMP2) (MMP-2; [10]): 26.45

Substance: VGKL
- corresponding MMP9 relative probability (RP) (MMP-9): 3.141
- Relative probability (RP) rank (MMP-9; [5]): 7569
- relative probability (RP) (MMP-9; [5]): 3.14
- MMP2 relative probability (RP) (MMP-2): 21.0562
- Relative probability (RP) rank (MMP-2; [11]): 1553
- relative probability (RP) (MMP-2; [11]): 21.06

Substance: VHPSAV
- relative probability (RP) (MMP-9; [1]): 36.5372
- relative probability (RP) (MMP-2; [2]): 29.6865

Substance: VPQEWR
- relative probability (RP) (MMP-9; [1]): 10.1914
- relative probability (RP) (MMP-2; [2]): 10.5981

Substance: VQAM
- relative probability (RP) (MMP-9; [7]): 21.63
- relative probability (RP) (acc.to MMP9) (MMP-9; [8]): 21.63
- relative probability (RP) (acc.to MMP2) (MMP-2; [10]): 21.36

Substance: VRNI
- relative probability (RP) (acc.to MMP9) (MMP-9; [6]): 38.1
- relative probability (RP) (MMP-9; [7]): 38.1
- relative probability (RP) (acc.to MMP9) (MMP-9; [8]): 38.1
- relative probability (RP) (acc.to MMP2) (MMP-2; [9]): 25.21
- relative probability (RP) of matching tetramer (MMP-2): 25.21
- relative probability (RP) (acc.to MMP2) (MMP-2; [10]): 25.21

Substance: VSALSS
- relative probability (RP) (MMP-9; [1]): 28.865
- relative probability (RP) (MMP-2; [2]): 32.3417

Substance: VSHY
- relative probability (RP) (acc.to MMP9) (MMP-9; [3]): 15.49
- relative probability (RP) (acc.to MMP2) (MMP-2; [4]): 21.33

Substance: VSSL
- relative probability (RP) (acc.to MMP9) (MMP-9; [6]): 17.98
- avg_RP (MMP-2; [12]): 29.0891
- relative probability (RP) (acc.to MMP2) (MMP-2; [9]): 29.09
- relative probability (RP) of matching tetramer (MMP-2): 29.09

Substance: VTPR
- relative probability (RP) (acc.to MMP9) (MMP-9; [3]): 0.46
- relative probability (RP) (acc.to MMP2) (MMP-2; [4]): 0.18

Substance: VYHQ
- MMP9 relative probability (RP) (MMP-9; MMP9 tetramers from unique substrates, unrounded values): 0.1039
- corresponding MMP2 relative probability (RP) (MMP-2; MMP9 tetramers from unique substrates, RP of same tetramer for MMP2): 13.6887

Substance: WGAL
- relative probability (RP) (acc.to MMP9) (MMP-9; RP of matching tetramer, unique part of MMP2 selectome): 3.54
- normalized RP - MMP9 (MMP-9; [13]): 0.06758
- avg_RP (MMP-2; average relative probability of the tetramer, redundant tetramers averaged out): 26.3441
- relative probability (RP) of matching tetramer (MMP-2): 26.34
- relative probability (RP) (acc.to MMP2) (MMP-2; RP of matching tetramer, unique part of MMP2 selectome, RP above KL threshold): 26.34
- normalized RP - MMP2 (MMP-2; [13]): 0.7212

Substance: WPSPFR
- relative probability (RP) (MMP-9; [1]): 37.3217
- relative probability (RP) (MMP-2; [2]): 30.9274

Substance: YSNI
- corresponding MMP9 relative probability (RP) (MMP-9): 0.05486
- avg_RP (MMP-2; [12]): 14.6847
- MMP2 relative probability (RP) (MMP-2): 14.6847
- Relative probability (RP) rank (MMP-2; [11]): 3195
- relative probability (RP) (MMP-2; [11]): 14.68
